# After the bases stand the sugars from the 5' end (letter, count) and the backbone: PS all phosphorothioate, else s phosphorothioate and o phosphodiester by linkage. Methylation of C is not given here. e = 2'-O-(2-methoxyethyl) (MOE); k = constrained ethyl (cEt); d = 2'-deoxy (DNA); m = 2'-O-methyl
# Molecular target: HSD17B13
# Conditions: ASO, HepaRG
Sequence,target mRNA inhibition (1 µM),also measured
"TTCAGTCCTTGTGTAG (sugars k3 d10 k3, PS)",45%,–
"TTCCATCTATCAGACT (sugars k3 d1 m1 d8 k3, PS)",38%,–
"TTCCATCTATCAGACT (sugars k3 d9 k3 e1, PS)",43%,–
"TTCTGTGGCATGGCTA (sugars kkdddddddddkekek, PS)",50%,–
"TTCTTACGACTTCATC (sugars k3 d10 k3, PS)",47%,–
"TTCTTATGTAATAGCC (sugars k3 d10 k3, PS)",71%,target mRNA inhibition (0.02 µM): 16%; target mRNA inhibition (0.078 µM): 39%; target mRNA inhibition (0.313 µM): 66%; target mRNA inhibition (1.25 µM): 86%; target mRNA inhibition (5 µM): 96%
"TTCTTATGTAATAGCC (sugars kkdddddddddkekek, PS)",78%,target mRNA inhibition (0.02 µM): 8%; target mRNA inhibition (0.078 µM): 28%; target mRNA inhibition (0.313 µM): 52%; target mRNA inhibition (1.25 µM): 79%; target mRNA inhibition (5 µM): 82%
"TTCTTGAGAGTGATTG (sugars k3 d10 k3, PS)",52%,–
"TTCTUATGTAATAGCC (sugars k3 d1 m1 d8 k3, PS)",66%,–
"TTGAACAGTCTTAAAC (sugars k3 d10 k3, PS)",33%,–
"TTGAACCGTATTCCCA (sugars k3 d10 k3, PS)",76%,–
"TTGAATAGCAAGCCAA (sugars kkdddddddddkekek, PS)",27%,–
"TTGACTAAGGAGCTAG (sugars k3 d10 k3, PS)",20%,–
"TTGACTGCTGCTAGTG (sugars k3 d9 k3 e1, PS)",50%,–
"TTGACTGCTGCTAGTG (sugars k3 d10 k3, PS)",30%,–
"TTGAGATAAAGCTGCC (sugars k3 d1 m1 d8 k3, PS)",51%,–
"TTGAGATAAAGCTGCC (sugars k3 d10 k3, PS)",49%,–
"TTGAGCCTAAAATTGT (sugars k3 d10 k3, PS)",36%,–
"TTGAGTAGTGTAAGCT (sugars k3 d1 m1 d8 k3, PS)",35%,–
"TTGAGTAGTGTAAGCT (sugars k3 d10 k3, PS)",52%,–
"TTGAGTAGTGTAAGCT (sugars kkdddddddddkekek, PS)",29%,–
"TTGAGTTCTCCACTGC (sugars k3 d9 k3 e1, PS)",26%,–
"TTGAGTTCTCCACTGC (sugars kkdddddddddkekek, PS)",20%,–
"TTGATATTCTGTGGCA (sugars k3 d9 k3 e1, PS)",76%,target mRNA inhibition (0.02 µM): 0%; target mRNA inhibition (0.078 µM): 0%; target mRNA inhibition (0.313 µM): 25%; target mRNA inhibition (1.25 µM): 51%; target mRNA inhibition (5 µM): 55%
"TTGATATTCTGTGGCA (sugars kkdddddddddkekek, PS)",55%,–

Sequence,target mRNA inhibition (1 µM),also measured
"TTGATGTAGTGGGAGT (sugars k3 d10 k3, PS)",68%,–
"TTGAUCTCTTAGCTGT (sugars k3 d1 m1 d8 k3, PS)",50%,–
"TTGCAAAATGTGATGC (sugars k3 d10 k3, PS)",75%,–
"TTGCAATGAGATTACC (sugars k3 d10 k3, PS)",29%,–
"TTGCACCGTTTTGGGC (sugars k3 d10 k3, PS)",45%,–
"TTGCAGAAATTCACCT (sugars k3 d9 k3 e1, PS)",29%,–
"TTGCAGTTATTAGAAG (sugars k3 d10 k3, PS)",13%,–
"TTGGAATGCTACTTGA (sugars k3 d9 k3 e1, PS)",56%,–
"TTGGACATGAAGATTA (sugars k3 d10 k3, PS)",18%,–
"TTGGTAAGTATTCCAT (sugars kkdddddddddkekek, PS)",13%,–
"TTGTATTTCGCTACTG (sugars k3 d10 k3, PS)",58%,–
"TTTAAAATAGAGTCGG (sugars k3 d1 m1 d8 k3, PS)",77%,–
"TTTAACTACCCTCACA (sugars k3 d10 k3, PS)",0%,–
"TTTAGTTGGTAGCTTG (sugars k3 d10 k3, PS)",63%,–
"TTTATAACTACAAGAG (sugars k3 d10 k3, PS)",38%,–
"TTTATGTAAGCACAGA (sugars k3 d10 k3, PS)",70%,–
"TTTCAGATCCCGTTCT (sugars k3 d10 k3, PS)",45%,–
"TTTCTCTCCATCATCG (sugars k3 d10 k3, PS)",27%,–
"TTTCTTATGTAATAGC (sugars k3 d10 k3, PS)",76%,–
"TTTCTTATTGGTAAGT (sugars k3 d10 k3, PS)",44%,–
"TTTGGTGAACCCAGTA (sugars k3 d10 k3, PS)",34%,–
"TTTTAATACGACTTCC (sugars k3 d10 k3, PS)",57%,–
"TTTTATTATGAGGATC (sugars k3 d10 k3, PS)",18%,–
"TTTTCGGCACTCAGCT (sugars k3 d10 k3, PS)",13%,–
"TTTTGTCCACCTTTAA (sugars k3 d10 k3, PS)",68%,–

# Source: the OligoGym collection
